Experimental data published in publication PMC3305890, “Synthesis and pharmacological characterization of potent, selective, and orally bioavailable isoindoline class dipeptidyl peptidase IV inhibitors” (Organic and Medicinal Chemistry Letters, 2011).
pIC50: −log10 of the molar value. Read-outs that look alike come from different tables or passages of the source.

Tests used:
[1] = Metabolic stability in rat liver microsomes; type: in vitro ADME; settings: 5 μM
Method: (§1) The incubation mixture containing 0.25 mg of rat or human liver microsomes was preincubated with an NADPH-generating system for 5 min at 37°C. The reaction was started by the addition of 5 μL of a DMSO solution containing the test compound (5 μM). At t = 0 and at two additional time points between 0 and 30 min, aliquots (100 μL) were removed and added to termination mixtures (CH3CN). Proteins were sedimented by centrifugation and an aliquot of the supernatant was analyzed by LC/MS/MS.
(§2) In determinations of the in vitrot1/2, the analyte/ISTD peak area ratio was converted to percentage of drug remaining by assigning a value of 100% to the peak area ratio at t = 0. The slope of the regression line fitted to the log (percentage remaining) versus incubation time relationship (-k) was used in the conversion of raw data to the in vitrot1/2 value. In vitro CLint was calculated using the following formula.
(§3) CLint=0.693/Invitro t1/2×mL incubation/mg microsomes×45 mg microsomes/mg liver×[…] (b.w.)

[2] = Metabolic stability in human liver microsomes; type: in vitro ADME; settings: read-out: CL'int Human (converted)
Method: as §1, §2, §3

CYP3A = CYP3A enzyme induction in rat hepatocytes (testosterone 6β-hydroxylation); type: in vitro ADME; settings: rat hepatocytes, 1, 10, 50 μM, 2 days
Method: Enzyme induction was evaluated as follows: Hepatocytes isolated from male SD rats were maintained in culture for 1 day before treatment with the test compound or P-450 inducers. The cells were treated with the test compound (1, 10, 50 μM), β-naphthoflavone (10 μM, CYP1A inducer), phenobarbital (50 μM, CYP2B inducer), dexamethasone (10 μM, CYP3A inducer), or vehicle (0.1% DMSO final volume; used as negative control) for 2 days.
Induction of CYP1A, CYP2B, and CYP3A enzymes was determined based on measurements of 7-ethoxyresorufin O-dealkylation, 7-pentoxyresorufin O-dealkylation, and testosterone 6β-hydroxylation, respectively. Assays were started by the addition of Krebs-Henseleit buffer containing 8 μM 7-ethoxyresorufin, 10 μM 7-pentoxyresorufin, or 250 μM testosterone at a volume of 100 μL per well. After incubation at 37°C for 30 min, aliquots were removed and analyzed by fluorometry (an excitation wavelength of 538 nm and an emission wavelength of 590 nm) or LC/MS/MS to determine the quantities of metabolites formed. Any test compound causing a dose-dependent change equal to or greater than 10% of the positive control (see formula below) was considered an enzyme inducer.
% positive control=(activity of test - compound treated cells - activity of negative control)/(activity of positive control - activity of negative control)×100

[3] = Pharmacokinetics (PK) in SD rats; type: in vivo, Sprague-Dawley (SD) rats; settings: for AUC(0-t): read-out: AUC 0-9 h
Method: Sprague-Dawley (SD) rats were housed under standard conditions and allowed free access to water and a commercial diet. On the day before the experiment, rats were fasted overnight and for the first 12 h of the experiment. […] Blood samples were collected from the jugular vein of each animal with a heparinized syringe under diethyl ether anesthesia at serial time points for 24 h after drug administration. Plasma was obtained by centrifugation at 4°C and stored at -70°C until analysis. Protein precipitation was carried out by the addition of the internal standard solution (70% CH3CN with 0.2% acetic acid) to samples. The tubes underwent vigorous shaking and centrifugation for 5 min; then the supernatant was subjected to LC/MS/MS analysis. Peak areas were determined using Xcalibur® software (Thermo Electron Corporation, UK) and AUC values were calculated by the trapezoidal rule.

plasma DPP-IV = biological target: T1, plasma DPP-IV (Rattus norvegicus, UniProt P14740); assay: Inhibition of rat plasma DPP-IV ex vivo during OGTT; type: in vivo, Wistar/ST rats; settings: for inhibition at 1 mg/kg: 1 mg/kg oral
T1 construct: from tissue; host or cells: plasma of Wistar/ST rats
Method: After 30 min (t = 0), oral glucose challenges (1 g/kg) were conducted and then plasma DPP-IV activities and blood glucose levels were monitored at various intervals over a 2 h period. […].
(§4) All procedures were approved by the Sanwa Kagaku Kenkyusho Institutional Animal Care and Use Committee. 7-week old Wistar/ST rats were housed under standard conditions and allowed free access to water and a commercial diet for at least 5 days. […] After an oral glucose challenge (5 mL/kg of an aqueous solution of 20% glucose), blood samples were collected from the tail vein of each animal into heparin-containing tubes at serial time points for 2 h. Plasma was prepared immediately, frozen, and stored at -20°C prior to analysis.
Plasma DPP-IV activity was determined as described above. A 20 μL plasma sample was mixed with 5 μL of reaction buffer (140 mM NaCl, and 10 mM KCl, 25 mM Tris-HCl, pH 7.4, 1% bovine serum albumin) and 10 μL of buffer containing 60 μM H-Gly-Pro-AMC. After incubation at room temperature for 30 min, the reaction was stopped by the addition of 20 μL of 25% aqueous acetic acid and fluorescence was measured using an excitation wavelength of 360 nm and an emission wavelength of 460 nm.

blood glucose = assay: Oral glucose tolerance test (OGTT), blood glucose; type: in vivo; settings: Wistar/ST rats, 1 mg/kg oral, glucose challenge 1 g/kg
Method: (§5) After 30 min (t = 0), oral glucose challenges (1 g/kg) were conducted and then plasma DPP-IV activities and blood glucose levels were monitored at various intervals over a 2 h period.
as §4
(§6) Plasma glucose and insulin were determined with a glucometer (Glutest Pro; SKK, Japan) and a rat insulin ELISA kit (Shibayagi, Japan), respectively, according to the manufacturer's instructions. Statistical analyses were performed using Microsoft Excel. Individual comparisons among more than two experimental groups were assessed using ANOVA, with Fisher's Least Significant Difference post hoc test. Differences were considered significant at P values < 0.05. Analysis of dose-response data was performed by Dunnett's test.

plasma insulin = assay: Plasma insulin after glucose challenge in OGTT; type: in vivo; settings: Wistar/ST rats, oral 4b, 10 min after glucose challenge
Method: as §5, §4, §6

human plasma DPP-IV = biological target: T2, human plasma DPP-IV (Homo sapiens, UniProt P27487); assay: IC50 with respect to human plasma DPP-IV (separate experiments); type: biochemical; settings: separate experiments (footnote a)
T2 construct: from tissue; host or cells: human plasma
Excerpt: Table 1 Inhibition of DPP-IV, -8 and -9 activity by 1,3-dihydroisoindoline derivatives 4, their metabolic clearance by rat and human and their enzyme-inducing (CYP1A, CYP2B, and CYP3A) capacity | column: IC50 (nM) / DPP-IV

[4] = Further PK studies: metabolite identification by LC-MS, in vivo conversion of 4b into 4l; settings: rats, after dosing of 4b
Method: Therefore, further PK studies were conducted. A major metabolite was detected by LC-MS analysis and its structure was determined by comparison of the LC retention time and MS/MS fragmentation pattern with synthetic standards.

[5] = Sprague-Dawley, rat, plasma, po 3 mg/kg
[6] = Sprague-Dawley, rat, plasma, po 10 mg/kg

T1 sequence (P14740 37-767 limits assumed): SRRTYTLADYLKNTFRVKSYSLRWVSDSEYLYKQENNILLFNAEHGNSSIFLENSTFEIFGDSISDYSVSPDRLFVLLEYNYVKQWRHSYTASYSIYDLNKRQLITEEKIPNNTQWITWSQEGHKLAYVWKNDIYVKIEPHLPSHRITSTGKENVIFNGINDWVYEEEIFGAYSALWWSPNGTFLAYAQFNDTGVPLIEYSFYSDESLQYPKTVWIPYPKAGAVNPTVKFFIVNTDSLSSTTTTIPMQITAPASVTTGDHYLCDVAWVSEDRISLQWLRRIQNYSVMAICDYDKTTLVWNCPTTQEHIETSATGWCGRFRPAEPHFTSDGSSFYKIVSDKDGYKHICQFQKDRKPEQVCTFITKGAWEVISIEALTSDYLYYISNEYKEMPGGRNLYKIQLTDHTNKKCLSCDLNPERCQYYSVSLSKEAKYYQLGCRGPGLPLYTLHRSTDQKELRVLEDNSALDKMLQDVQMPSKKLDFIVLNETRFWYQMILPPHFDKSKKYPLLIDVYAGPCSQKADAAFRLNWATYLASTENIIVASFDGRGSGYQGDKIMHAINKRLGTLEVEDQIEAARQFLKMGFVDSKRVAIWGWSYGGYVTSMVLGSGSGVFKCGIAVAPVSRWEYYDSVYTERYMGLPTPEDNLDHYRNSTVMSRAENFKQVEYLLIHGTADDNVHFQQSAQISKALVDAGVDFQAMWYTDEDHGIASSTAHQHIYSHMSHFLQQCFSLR
T2 sequence (P27487 39-766 limits assumed): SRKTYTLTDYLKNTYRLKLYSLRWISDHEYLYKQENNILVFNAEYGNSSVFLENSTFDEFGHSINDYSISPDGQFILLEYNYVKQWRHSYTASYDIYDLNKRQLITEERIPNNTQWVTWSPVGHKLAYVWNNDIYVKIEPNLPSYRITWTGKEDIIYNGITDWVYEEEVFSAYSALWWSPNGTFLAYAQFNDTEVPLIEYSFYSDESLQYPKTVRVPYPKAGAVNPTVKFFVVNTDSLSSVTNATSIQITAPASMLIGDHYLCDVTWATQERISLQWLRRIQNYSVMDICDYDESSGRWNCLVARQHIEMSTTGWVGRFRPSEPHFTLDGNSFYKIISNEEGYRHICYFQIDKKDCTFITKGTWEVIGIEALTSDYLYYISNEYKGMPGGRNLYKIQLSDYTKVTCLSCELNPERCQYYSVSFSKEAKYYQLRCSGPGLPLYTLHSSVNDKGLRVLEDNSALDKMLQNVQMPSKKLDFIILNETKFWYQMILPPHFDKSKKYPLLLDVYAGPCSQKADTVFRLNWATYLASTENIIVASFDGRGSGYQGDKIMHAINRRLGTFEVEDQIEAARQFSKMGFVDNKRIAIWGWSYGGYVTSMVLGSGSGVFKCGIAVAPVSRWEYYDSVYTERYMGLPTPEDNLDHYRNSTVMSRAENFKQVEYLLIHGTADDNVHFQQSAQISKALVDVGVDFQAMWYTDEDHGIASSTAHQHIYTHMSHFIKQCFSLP

SMILES: Cc1ccc2c(c1)CN(C(=O)CC(C)(C)NCC(=O)N1CCC[C@H]1C#N)C2 [Compound 4b, (S)-1-(2-(2-Methyl-4-(5-methylisoindolin-2-yl)-4-oxobutan-2-ylamino)acetyl)pyrrolidine-2-carbonitrile]
- CL'int Rat [1]: 38.3 mL/min/kg
- CLint scaled at 5 μM [2]: 1.67 mL/min/kg
- Enzyme induction (rat) CYP3A (CYP3A): - (Any test compound causing a dose-dependent change equal to or greater than 10% of the positive control (see formula below) was considered an enzyme inducer)
- AUC(0-t) ([3]; Sprague-Dawley, rat, plasma, iv 1 mg/kg): 39 ng·h/mL
- clearance ([3]; Sprague-Dawley, rat, plasma, iv 1 mg/kg, read-out: CL p (converted)): 437 mL/min/kg
- Vd ([3]; Sprague-Dawley, rat, plasma, iv 1 mg/kg, read-out: Vd ss): 8.28 L/kg
- Cmax [3, 5]: 37 ng/mL
- Tmax [3, 5]: 15 min
- AUC(0-t) [3, 5]: 33 ng·h/mL
- Cmax [3, 6]: 229 ng/mL
- Tmax [3, 6]: 15 min
- AUC(0-t) [3, 6]: 156 ng·h/mL
- t 1/2α ([3]; iv 1 mg/kg, first t 1/2 column): 3.72 min
- t 1/2α ([3]; iv 1 mg/kg, second t 1/2): 16.2 min
- BA ([3]; po 3 mg/kg): 27.7%
- t 1/2α ([3]; po 3 mg/kg, second t 1/2): 82.2 min
- BA ([3]; po 10 mg/kg): 39.9%
- t 1/2α ([3]; po 10 mg/kg, second t 1/2): 90 min
- inhibition of DPP-IV estimated from the PK profiles (plasma DPP-IV; 3-10 mg/kg doses, for several hours, estimated from the PK profiles): > 50%
- inhibition at 0.1 mg/kg (plasma DPP-IV; rat, Wistar/ST rats, 0.1 mg/kg oral): 30%
- inhibition at 1 mg/kg (plasma DPP-IV; rat, Wistar/ST rats, over 2 h period after glucose challenge, read-out: inhibition of plasma DPP-IV activity maintained throughout the study): > 90%
- inhibition at 1 mg/kg (plasma DPP-IV; rat, Wistar/ST rats, within 30 min post-dose, read-out: inhibition of plasma DPP-IV activity): 95%
- reduction of glucose levels in OGTT (blood glucose): 18%
- insulin levels at 10 min post-challenge (plasma insulin): increased

SMILES: CC(C)(CC(=O)N1Cc2ccc(CO)cc2C1)NCC(=O)N1CCC[C@H]1C#N [Compound 4l, (S)-1-(2-(4-(5-(Hydroxymethyl)isoindolin-2-yl)-2-methyl-4-oxobutan-2-ylamino)acetyl)pyrrolidine-2-carbonitrile]
- pIC50 (human plasma DPP-IV): 8.72
- in vivo conversion (of 4b into metabolite 4l) [4]: 60%
